In one experiment the test system is NCI-H460 parental. The experiment in a line: p-histone H3 fluorescence-based cell imaging assay. Also on record: species or system human. The settings on record: Homo sapiens, P-gp −. On the procedure: (§1) All high-content cell assays were performed on an ArrayScan VTi HCS Reader (Cellomics). Tumor cell lines were treated with AMG 900, AZD1152, MK-0457, or PHA-739358 (concentration range varied based on potency). The cells were prepared for intracellular staining with an anti-p-histone H3 Ser^10 antibody as previously described (1). Detection was performed with an anti-rabbit IgG-alexa-568 antibody and DAPI. The cellular levels of p-histone H3 were analyzed using Target Activation V2 algorithm (Cellomics) to determine the percentage of positive cells. For the imaging assays, the concentration-response curves and corresponding IC50 and EC50 values were calculated using the percentage of cells affected versus the DMSO control.

In the next experiment the test system is MDA-MB-231 parental. Put plainly: p-histone H3 fluorescence-based cell imaging assay. Also on record: species or system human. The following applies: Homo sapiens, P-gp −. The method, then:
as §1

Experiment [1] has as its system NCI-H460 PTX paclitaxel resistant. The experiment in a line: p-histone H3 fluorescence-based cell imaging assay. The following applies: Homo sapiens. On the set-up: species or system human. On the procedure: as §1
For a further experiment, the system named is MES-SA parental. The experiment in a line: p-histone H3 fluorescence-based cell imaging assay. Also on record: species or system human. The following applies: Homo sapiens, P-gp −. On the procedure:
as §1

Experiment [2] deals with MES-SA-Dx5 doxorubicin resistant. The experiment in a line: p-histone H3 fluorescence-based cell imaging assay. On the set-up: species or system human. The settings on record: Homo sapiens. The method, then:
as §1

Experiment [3] concerns three matched taxol-resistant and -sensitive tumor cell lines. The experiment in a line: Matched taxol-resistant and -sensitive tumor cell lines (summary). In kind it is cell-based. The following applies: Homo sapiens; all three matched taxol-resistant and -sensitive tumor cell lines. On the procedure:
MES-SA Dx5 and MES-SA cells were plated at a density of 10,000 cells/well onto 96-well plate in complete media and cultured for 24 hours. […] Cells were washed and fixed by adding 100 μL of 2× formaldehyde fixation buffer for 10 minutes and room temperature. […] Cells were immunostained with p-histone H3 antibody (5 μg/mL) and incubated at room temperature for 2 hours. Cells were washed in 100 μL of wash buffer. Next, cells were incubated with a goat anti-rabbit alexa-488 conjugated antibody (1.5 μg/mL) in wash buffer supplemented with Hoechest DNA dye (1 μg/mL) and incubated at room temperature in the dark for 30 minutes. Cells were washed twice with 100 μL of wash buffer. The 96-well plates were analyzed on an ArrayScan VTi (Cellomics) using a bioapplication algorithm (TargetActivation.V2). […] NCI-H460 parental and NCI-H460 taxol-resistant cells were seeded at a density of 500,000 cells/well in a 6-well plate in 2 mL of appropriate complete media. The next day cells were treated with AMG 900 or taxol over a 6-point concentration range with a final DMSO concentration of 0.05% in media. After 24 hours, cells were pulsed with BrdU (1:100 dilution) and harvested. […] Data was acquired and analyzed by flow cytomety (LSRII). […] The +4N (same as ≧4N) DNA content or SubG1 cellular EC50 values were calculated using a 4-parameter equation. […] Data was acquired and analyzed by flow cytometry (LSRII). […]

Experiment [4] concerns multiple human cancer xenograft models. The experiment in a line: Xenograft panel, Example 3 (summary). In kind it is in vivo, athymic nude mice. The following applies: all xenograft models tested; oral 3.75, 7.5 or 15 mg/kg BID 2 consecutive days per week or 3 mg/kg BID everyday. The method, then: To investigate whether AMG 900-induced suppression of aurora kinase activity inhibits cell proliferation, the antiproliferative efficacy of AMG 900 was evaluated in-vivo in multiple human cancer xenograft models, including breast, colon, leukemia, lung, pancreatic, and uterine cancer models, grown in athymic nude mice. Mice were administered AMG 900 orally at 3.75, 7.5, or 15 mg/kg BID for 2 consecutive days per week or 3 mg/kg BID everyday for the duration of the study beginning when tumors were established. The reagents, solutions, equipment, formulation of AMG 900, tumor volume measurements and calculations were generally as described in Example 4 below.

A further experiment concerns MCF-7. Put plainly: Cellular EC50, additional cell lines (Table 6-B). The following applies: Homo sapiens, MCF7; MCF-7, Breast. In kind it is cell-based, human. The method, then:
as §1
(§2) Tumor cells were treated with AMG 900, AZD1152, MK-0457, or PHA-739358 (range concentration varied based on potency) for 24 hours and processed for cell-cycle analysis (DNA staining only) as previously described (1). Cells were analyzed on a LSRII flow cytometer using BD FACS Diva software. The concentration-response curves and corresponding EC50 values were calculated using the percentage of cells with ≧4N DNA content versus the DMSO control.

A further experiment concerns HCT15. The experiment in a line: Cellular EC50, additional cell lines (Table 6-B). The class given is cell-based, human. The following applies: Homo sapiens, HCT-15, Colon, P-gp+. The method, then: as §1, §2
Experiment [5] deals with MDR tumor cell lines expressing either P-gp or BCRP. The experiment in a line: p-histone H3 / polyploidy in MDR tumor cell lines (summary). The class given is cell-based. The following applies: Homo sapiens; all cell lines tested irrespective of P-gp or BCRP status; read-out: IC50 or EC50 values (p-histone H3 inhibition or polyploidy). On the procedure: as §1, §2

For orientation: IC50 means the concentration that gives 50% inhibition. A word on the EC50: it is the concentration giving half of the maximal effect. With `Cc1csc(-c2nnc(Nc3ccc(Oc4ncccc4-c4ccnc(N)n4)cc3)c3ccccc23)c1` [AMG 900, N-(4-((3-(2-amino-4-pyrimidinyl)-2-pyridinyl)oxy)phenyl)-4-(4-methyl-2-thienyl)-1-phthalazinamine], the IC50 with NCI-H460 parental is 3 nM; in the experiment on MDA-MB-231 parental, 2 nM; in experiment [1] (NCI-H460 PTX paclitaxel resistant, P-gp +) it was 3 nM; with MES-SA parental, 3 nM; in experiment [2] (MES-SA-Dx5 doxorubicin resistant, P-gp +) it was 2 nM; in experiment [5] it was 2 to 3 nM. The EC50 in [1] (NCI-H460-PTX*, Lung, P-gp+, read-out: Cellular EC50) was 3 nM; in experiment [2] (MES-SA Dx5*, Uterine, P-gp+, read-out: Cellular EC50) it was 2 nM; in experiment [3] it was less than 2 nM; in the experiment on MCF-7, 1 nM; in the experiment with HCT15, 2 nM. For the same molecule, in experiment [4], the “tumor growth vs vehicle control” value was “significantly inhibited tumor growth”.

For the origin of these results see patent publication US20120028917A1, “Use Of N-(4-((3-(2-Amino-4-Pyrimidinyl)-2-Pyridinyl)Oxy)Phenyl)-4-(4-Methyl-2-Thienyl)-1-Phthalazinamine In The Treatment Of Antimitotic Agent Resistant Cancer” (Amgen Inc., priority 2009, published 2012).
